Tests used:
[1] = In vivo testing, monkey IOP; conditions: Conc. 0.1% (g/100 mL)
Source text: (§1) In vivo testing done as described in U.S. patent application Ser. No. 11/009,298 gave the results in Table 2 below.

In vivo testing, dog IOP = conditions: Conc. 0.1% (g/100 mL)
Source text: as §1

[2] = In vivo testing, dog hyperemia; conditions: Conc. 0.1% (g/100 mL)
Source text: as §1

[3] = In vivo testing, rabbit hyperemia; conditions: Conc. 0.1% (g/100 mL)
Source text: as §1

EP2 [4] = biological target: T1, EP2 (Homo sapiens, UniProt P43116); test: Competition binding, human EP2 receptors ([3H]PGE2); set-up: expressed in transfected cells; conditions: HEK 293 cells stably expressing human EP2, [3H]PGE2
T1 sequence (P43116 whole entry): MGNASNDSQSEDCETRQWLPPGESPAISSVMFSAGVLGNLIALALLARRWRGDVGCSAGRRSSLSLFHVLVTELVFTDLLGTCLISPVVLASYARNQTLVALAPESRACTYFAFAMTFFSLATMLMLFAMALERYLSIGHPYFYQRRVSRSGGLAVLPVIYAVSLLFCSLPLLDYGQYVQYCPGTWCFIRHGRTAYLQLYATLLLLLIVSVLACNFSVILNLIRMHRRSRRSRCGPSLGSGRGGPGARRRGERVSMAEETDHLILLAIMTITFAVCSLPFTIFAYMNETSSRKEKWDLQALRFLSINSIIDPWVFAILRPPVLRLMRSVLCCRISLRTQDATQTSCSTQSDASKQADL
Method: Competition binding experiments were performed in a medium containing Hank's balanced salt solution, Hepes 20 mM, pH 7.3, membranes (˜60 μg protein) or 2×10^5 cells from HEK 293 cells stably expressing human EP2 receptors, [^3H]PGE2 (10 nM) and various concentrations of test compounds in a total volume of 300 μl. Reaction mixtures were incubated at 23° C. for 60 min, and were filtered over Whatman GF/B filters under vacuum. Filters were washed three times with 5 ml ice-cold buffer containing 50 mM Tris/HCl (pH 7.3). Non-specific binding was estimated in the presence of excess unlabeled PGE2 (10 μM). Binding data fitted to the binding model for a single class of binding sites, using nonlinear regression analysis. IC50 values thus obtained were converted to Ki using the equation of Ki=(IC50/(1+[L]/KD) where [L] represents PGE2 concentration (10 nM) and KD the dissociation constant for [^3H]PGE2 at human EP2 receptors (40 nM). […]
The cell homogenate was centrifuged at 19000 r.p.m. for 20 min at 4° C. using a Beckman Ti-60 rotor. The resultant pellet was resuspended in TME buffer to give a final 1 mg/ml protein concentration, as determined by Biorad assay. […]
[^3H-] […] 17-phenyl PGF2α and non-specific binding determined with 10^−5M of unlabeled PGE2, or 17-phenyl PGF2α, according to receptor subtype studied.

hEP2/Gqs5 = biological target: T2, hEP2/Gqs5 (Homo sapiens, UniProt P43116); test: FLIPR calcium signal, EP2; type: cell-based; conditions: HEK-293(EBNA) cells, read-out: EP2 Ca2+ EC50
T2 construct: expressed in transfected cells
T2 sequence (P43116 whole entry): as above
Method: HEK-293(EBNA) cells, stably expressing one type or subtype of recombinant human prostaglandin receptors (prostaglandin receptors expressed: hDP/Gqs5; hEP2; hEP2/Gqs5; hEP3A/Gqi5; hEP4/Gqs5; hFP; hIP; hTP), were cultured in 100 mm culture dishes in high-glucose DMEM medium containing 10% fetal bovine serum, 2 mM I-glutamine, 250 μg/ml geneticin (G418) and 200 μg/ml hygromycin B as selection markers, and 100 units/ml penicillin G, 100 μg/ml streptomycin and 0.25 μg/ml amphotericin B.
Cells were seeded at a density of 5×10^4 cells per well in Biocoat® Poly-D-lysine-coated black-wall, clear-bottom 96-well plates (Becton-Dickinson) and allowed to attach overnight in an incubator at 37° C. Cells were then washed two times with HBSS-HEPES buffer (Hanks Balanced Salt Solution without bicarbonate and phenol red, 20 mM HEPES, pH 7.4) using a Denley Cellwash plate washer (Labsystems). […]
Cells were excited with an Argon laser at 488 nm, and emission was measured through a 510-570 nm bandwidth emission filter (FLIPR™, Molecular Devices, Sunnyvale, Calif.). […] The peak increase in fluorescence intensity was recorded for each well. […] The peak fluorescence change in each drug-containing well was then expressed relative to the controls. […]

EP2 [5] = biological target: T1, EP2; test: cAMP assay, EP2; type: cell-based; set-up: expressed in transfected cells; host or cells: HEK-EBNA cells; conditions: HEK-EBNA cells expressing EP2
Method: A 384-well drug plate was prepared to contain 6 test compounds, PGE2 and cAMP in 16 serial dilutions in triplicate, using a Biomek station. HEK-EBNA cells expressing a target PG receptor subtype (EP2 or EP4) were suspended in a stimulation buffer (HBSS, 0.1% BSA, 0.5 mM IBMX and 5 mM HEPES, pH 7.4) in a density of 10^4 cells/5 μl. The reaction was initiated by mixing […] drug dilutions with 5 μl of HEK-EBNA cells in a well, carried out for 30 min at room temperature, and followed by the addition of 5 μl anti-cAMP acceptor beads in the control buffer with Tween-20 (25 mM NaCl, 0.03% Tween-20, 5 mM HEPES, pH7.4). After 30 min in the dark at room temperature, the mixtures were incubated with 15 μl biotinylated-cAMP/strepavidin donor beads in Lysis/Detection buffer (0.1% BSA, 0.3% Tween-20 and 5 mM HEPES, pH7.4) for 45 min at the room temperature. Fluorescence changes were read using a Fusion-alpha HT microplate reader.

EP4 = biological target: T3, EP4 (Homo sapiens, UniProt P35408); test: Radioligand binding, EP4; conditions: HEK-293 cells expressing EP4, [3H]PGE2; read-out: EP4 Ki EC50
T3 construct: expressed in transfected cells; membrane fraction
T3 sequence (P35408 whole entry): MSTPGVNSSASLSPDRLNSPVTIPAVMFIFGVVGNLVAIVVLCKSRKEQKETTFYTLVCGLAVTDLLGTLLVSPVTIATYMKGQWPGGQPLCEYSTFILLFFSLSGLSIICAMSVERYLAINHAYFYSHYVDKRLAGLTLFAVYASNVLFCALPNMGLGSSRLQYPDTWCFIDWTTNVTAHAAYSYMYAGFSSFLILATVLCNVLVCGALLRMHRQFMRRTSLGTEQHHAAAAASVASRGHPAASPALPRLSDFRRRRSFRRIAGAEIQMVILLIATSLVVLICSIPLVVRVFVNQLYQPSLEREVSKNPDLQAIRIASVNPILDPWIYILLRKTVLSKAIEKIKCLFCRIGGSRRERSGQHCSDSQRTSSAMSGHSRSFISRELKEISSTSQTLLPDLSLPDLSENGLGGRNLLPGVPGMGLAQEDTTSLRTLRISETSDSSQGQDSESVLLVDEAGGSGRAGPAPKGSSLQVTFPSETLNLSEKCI
Method: HEK-293 cells stably expressing the human or feline FP receptor, or EP1, EP2, or EP4 receptors were washed with TME buffer, scraped from the bottom of the flasks, and homogenized for 30 sec using a Brinkman PT 10/35 polytron. TME buffer was added to achieve a final 40 ml volume in the centrifuge tubes (the composition of TME is 100 mM TRIS base, 20 mM MgCl2, […]; 10N HCl is added to achieve a pH of 7.4).
The cell homogenate was centrifuged at 19000 r.p.m. for 20 min at 4° C. using a Beckman Ti-60 rotor. The resultant pellet was resuspended in TME buffer to give a final 1 mg/ml protein concentration, as determined by Biorad assay. Radioligand binding competition assays vs. [^3H-]17-phenyl PGF2n (5 nM) were performed in a 100 μl volume for 60 min. Binding reactions were started by adding plasma membrane fraction. The reaction was terminated by the addition of 4 ml ice-cold TRIS-HCl buffer and rapid filtration through glass fiber GF/B filters using a Brandel cell harvester. The filters were washed 3 times with ice-cold buffer and oven dried for one hour.
[^3H-] PGE2 (specific activity 180 Ci mmol) was used as the radioligand for EP receptors. [^3H] 17-phenyl PGF2α was employed for FP receptor binding studies. […] 17-phenyl PGF2α and non-specific binding determined with 10^−5M of unlabeled PGE2, or 17-phenyl PGF2α, according to receptor subtype studied.

DOG Max. hyperemia [2] | RABBIT Max. hyperemia [3] | Ki (EP2 [4]) | EC50 (hEP2/Gqs5) | EC50 (EP2 [5]) | Ki (EP4) | Structure (SMILES) | MONKEY Max. IOP (%) [1] | DOG Max. IOP (%) (In vivo testing, dog IOP)
2.0 |  |  |  |  |  | CCCCCC(=O)c1ccc([C@@H]2[C@@H](C/C=C\CCCC(=O)O)[C@H](Cl)C[C@H]2O)cc1 [Entry 1] | 31% | −50%
0.8 | 0 |  |  |  |  | CCCCCC(=O)c1ccc([C@@H]2[C@@H](C/C=C\CCCC(=O)OC(C)C)[C@H](Cl)C[C@H]2O)cc1 [Entry 2] | 20% | −37%
 |  | 0.111 µM | 0.031 µM | 0.009 µM | 2.81 µM | CCCCCC(=O)c1ccc([C@@H]2[C@@H](C/C=C\CCCC(=O)O)[C@H](Cl)C[C@H]2O)cc1 [drawing 41] |  | 

Reference: patent publication US7476755B2, “Therapeutic compounds” (Allergan, Inc., priority 2006, dated 2009)
